Tests used:
PDGFRβ [1] = target: T1, PDGFRβ (Homo sapiens (Human), UniProt P09619); assay: PDGF-BB induced phosphorylation of PDGFRβ in fibroblasts (MRC5 cells, HTRF); format: cell-based; conditions: MRC5 cells; n = 1 unless otherwise indicated; read-out: PDGFBB-induced PDGFRβ phosphorylation in MRC5 cells (IC50)
PAMPA permeability assay = format: in vitro ADME; conditions: for Papp at 5 h, 10 μM: pH 7, pH 7, 10 μM
PDGFRβ [2] = target: T1, PDGFRβ; conditions: read-out: Ki PDGFRβ; mean, n = 2 unless otherwise indicated
MRC5 cells = assay: Cell viability assay in MRC5 cells (MTT)
[3] = PAMPA, pH 7, PAMPA, donor and acceptor compartments
[4] = pH 7, PAMPA, donor and acceptor compartments

T1 sequence (P09619 33-1106): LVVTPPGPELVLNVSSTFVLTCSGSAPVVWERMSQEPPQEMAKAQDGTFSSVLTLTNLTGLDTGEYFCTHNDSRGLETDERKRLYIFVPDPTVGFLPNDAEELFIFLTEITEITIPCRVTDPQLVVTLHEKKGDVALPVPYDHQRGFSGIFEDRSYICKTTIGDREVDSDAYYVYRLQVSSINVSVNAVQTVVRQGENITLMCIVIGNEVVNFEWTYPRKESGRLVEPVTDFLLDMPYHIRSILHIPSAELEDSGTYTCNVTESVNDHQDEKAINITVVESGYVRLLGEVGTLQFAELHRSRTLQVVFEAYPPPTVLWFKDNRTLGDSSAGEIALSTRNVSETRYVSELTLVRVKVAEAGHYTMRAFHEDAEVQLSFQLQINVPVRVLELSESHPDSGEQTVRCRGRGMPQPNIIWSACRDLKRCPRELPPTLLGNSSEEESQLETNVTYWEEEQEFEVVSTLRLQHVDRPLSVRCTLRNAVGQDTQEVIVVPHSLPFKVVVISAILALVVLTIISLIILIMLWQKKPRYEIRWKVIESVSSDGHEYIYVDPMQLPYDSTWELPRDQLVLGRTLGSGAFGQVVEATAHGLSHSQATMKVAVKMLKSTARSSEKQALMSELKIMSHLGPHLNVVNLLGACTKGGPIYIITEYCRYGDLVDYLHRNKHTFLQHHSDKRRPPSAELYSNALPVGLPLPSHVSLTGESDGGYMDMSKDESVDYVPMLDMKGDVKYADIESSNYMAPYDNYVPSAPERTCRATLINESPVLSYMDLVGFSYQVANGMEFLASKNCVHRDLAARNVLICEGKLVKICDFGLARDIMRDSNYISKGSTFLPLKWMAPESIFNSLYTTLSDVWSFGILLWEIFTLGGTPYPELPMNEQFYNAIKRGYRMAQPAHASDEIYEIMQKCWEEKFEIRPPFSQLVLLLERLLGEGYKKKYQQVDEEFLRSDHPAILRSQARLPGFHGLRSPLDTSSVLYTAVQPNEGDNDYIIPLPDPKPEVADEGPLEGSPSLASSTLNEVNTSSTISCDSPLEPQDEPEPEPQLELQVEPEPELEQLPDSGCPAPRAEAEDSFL

SMILES | IC50 (PDGFRβ [1]) [nM] | % Recovery (PAMPA permeability assay; PAMPA, donor and acceptor compartments) [%] | recovery at 5 hr, 10 μM (PAMPA permeability assay; [3]) [%] | Papp at 5 h, 10 μM (PAMPA permeability assay; PAMPA, 5 hr) [×10⁻⁶ cm/s] | Mean Papp (PAMPA permeability assay; pH 7, 10 μM, 5 hr) | Ki (PDGFRβ [2]) [nM] | Cell viability at 100 nM (%) (MRC5 cells) | Cell viability at 300 nM (%) (MRC5 cells) | Cell viability at 1000 nM (%) (MRC5 cells) | recovery at 5 hr, 10 μM (PAMPA permeability assay; [4]) [%]
COC(=O)c1cc2c(cc1C)/C(=C(/Nc1ccc(C(=O)NOCCN3CC[C@H](N(C)C)C3)cc1)c1ccccc1)C(=O)N2 [Example 51] | 9.39 | 74.7 | 62 | 0.00306 | 0.00474 10^−6 cm s^−1 | 9.44 | 86.5 | 85.8 | 71.2 | 
COC(=O)c1ccc2c(c1)NC(=O)/C2=C(\Nc1ccc(C(=O)NOCCN2CCC(O)CC2)cc1)c1ccccc1 [Example 40] | 29.2 |  | 75 | 0.00954 |  | 7.66 | 103.8 | 103.8 | 110.5 | 
COC(=O)c1cc2c(cc1C)/C(=C(/Nc1ccc(C(=O)NOCCN3CCC(OC)CC3)cc1)c1ccccc1)C(=O)N2 [Example 52] | 21.8 |  | 76.2 | 0.279 |  | 17 | 62 | 50.9 | 59.8 | 
COC(=O)c1cc2c(cc1C)/C(=C(/Nc1ccc(C(=O)NOCCN3CCN(C)CC3)c(F)c1)c1ccccc1)C(=O)N2 [Example 32] | 3.09 |  | 42.8 | 0.0192 |  | 4.92 | 93.5 | 82.3 | 66.3 | 
COC(=O)c1cc2c(cc1C)/C(=C(/Nc1ccc(C(=O)NOC3CCN(C)CC3)cc1)c1ccccc1)C(=O)N2 [Example 30] | 7.43 |  | 87 | 0.00225 |  | 7.32 | 96.1 | 87.7 | 26 | 
COC(=O)c1cc2c(cc1C)/C(=C(/Nc1ccc(C(=O)N(C)OCCN3CC4CCC(C3)N4)cc1)c1ccccc1)C(=O)N2 [Example 61] | 7.84 |  |  | 0.0205 |  | 18.3 | 83 | 86.6 | 35.2 | 64.4
COC(=O)c1cc2c(cc1C)/C(=C(/Nc1ccc(C(=O)NOCCCN(C)C)cc1)c1ccccc1)C(=O)N2 [Example 27] | 10.4 |  | 61.2 | 0.00146 |  | 4.77 | 94.9 | 88.6 | 86.4 | 
COC(=O)c1ccc2c(c1)NC(=O)/C2=C(\Nc1ccc(C(=O)NOCCN2CCNC(=O)C2)cc1)c1ccccc1 [Example 42] | 56.3 |  | 76.8 | 0.0264 |  | 7.06 | 114.5 | 109.6 | 118.3 | 
COC(=O)c1ccc2c(c1)NC(=O)/C2=C(\Nc1ccc(C(=O)NOCCN2CCN(C)CC2)c(F)c1)c1ccccc1 [Example 33] | 8.99 |  | 71.9 | 0.00743 |  | 8.47 | 110.7 | 101.3 | 91.3 | 
COC(=O)c1ccc2c(c1)NC(=O)/C2=C(\Nc1ccc(C(=O)NOCCN2CC[C@H](N(C)C)C2)cc1)c1ccccc1 [Example 38] | 14.6 |  | 55.4 | 0.00569 |  | 6.91 | 89.3 | 90.8 | 93 | 
COC(=O)c1ccc2c(c1)NC(=O)/C2=C(\Nc1ccc(C(=O)NOCCN2CCC(C#N)CC2)cc1)c1ccccc1 [Example 43] | 25.7 |  | 75.3 | 0.00798 |  | 32.4 | 96.5 | 91.8 | 83.9 | 
COC(=O)c1cc2c(cc1C)/C(=C(/Nc1ccc(C(=O)NOCCN3CCC(N(C)C)CC3)cc1)c1ccccc1)C(=O)N2 [Example 50] | 9.42 |  | 179 | 0.0566 |  | 9.24 | 107.5 | 92.6 | 69.7 | 
COC(=O)c1cc2c(cc1C)/C(=C(/Nc1ccc(C(=O)N(C)OCCN3C[C@@H]4C[C@H]3CN4)cc1)c1ccccc1)C(=O)N2 [Example 59] | 25.4 |  | 69.6 | 0.0364 |  | 9.19 | 123.5 | 107.7 | 103.8 | 
COC(=O)c1ccc2c(c1)NC(=O)/C2=C(\Nc1ccc(C(=O)N(C)OCCN2CCN(C)CC2)c(C)c1)c1ccccc1 [Example 18] | 3.68 |  | 51.5 | 0.424 |  | 11 | 104.5 | 90.3 | 68.7 | 
COC(=O)c1cc2c(cc1C)/C(=C(/Nc1ccc(C(=O)NOCCCN(C)C)c(C)c1)c1ccccc1)C(=O)N2 [Example 29] | 3.18 |  | 65.1 | 0.00415 |  | 7.48 | 92 | 85.8 | 91.8 | 
COC(=O)c1cc2c(cc1C)/C(=C(/Nc1ccc(C(=O)N(C)OCCN3C4CCC3CNC4)cc1)c1ccccc1)C(=O)N2 [Example 60] | 5.6 |  |  | 0.0503 |  | 13 | 88.8 | 84.4 | 0.2 | 69.2
COC(=O)c1cc2c(cc1C)/C(=C(/Nc1ccc(S(=O)(=O)NOCCN3CCN(C)CC3)cc1)c1ccccc1)C(=O)N2 [Example 2, (Z)-Methyl 5-methyl-3-(((4-(N-(2-(4-methylpiperazin-1-yl)ethoxy)sulfamoyl)phenyl)amino)(phenyl)methylene)-2-oxoindoline-6-carboxylate] | 39.6 |  | 54.1 | 0.0261 |  | 19.2 | 124.5 | 104.4 | 101.2 | 
CCN1CCN(CCONC(=O)c2ccc(N/C(=C3\C(=O)Nc4cc(C(=O)OC)c(C)cc43)c3ccccc3)cc2)CC1 [Example 36] | 9.44 |  | 53.1 | 0.0301 |  | 8.46 | 108.8 | 93 | 65.9 | 
